Test results taken from patent US12533095B1, “Airway mucus scoring system” (The Regents of the University of California, priority 2016, dated 2026).

Experiments:
[1] = Maximum bronchodilator reversibility test (MBRT); type: in vivo, human
Method: (§1) Treatment response to bronchodilators and systemic corticosteroids: Maximum Bronchodilator Reversibility tests (MBRT's) were performed on baseline visits 2 and 3. MBRT was determined by measuring spirometry before and after 360-720 meg of albuterol sulfate delivered by metered-dose inhaler. Patients also underwent a systemic corticosteroid response test (SCRT), which involved an intramuscular injection of triamcinolone acetonide (40 mg) on visit 2 and repeat characterization including MBRT and blood draw on visit 3 (2-4 weeks later). Maximum bronchodilator reversibility test (MBRT): Subjects were asked to hold their bronchodilator medications prior to spirometry testing. Following baseline spirometry, 4 puffs of albuterol (360 mcg) were administered. Spirometry was then repeated 15 minutes later. If the change in FEV1 from the spirometry maneuver performed after 4 puffs was greater than 5%, an additional 2 puffs of albuterol (180 mcg) were then administered and spirometry was repeated again 15 minutes later. If the change in FEV1 after 6 puffs was greater than 5%, an additional 2 puffs of albuterol were administered with repeat spirometry after an additional 15 minutes. If the change was less than 5% after 4 or 6 puffs of albuterol, the procedure was stopped and the last maneuver was taken to be the highest achievable measure. No more than 8 puffs of albuterol were administered as part of the MBRT procedure. MBRT was measured on baseline visits 2 and 3 (FIG. 5).

[2] = Systemic corticosteroid responsiveness test (SCRT); type: in vivo, human
Method: Systemic Corticosteroid Responsiveness Test (SCRT): Patients were given an intramuscular injection of triamcinolone acetonide (40 mg) following complete characterization on visit 2. Repeat characterization post steroid injection (excluding MDCT), was carried out on visit 3 (2-4 weeks later) (FIG. 5). Treatment response to bronchodilators and systemic corticosteroids: Maximum Bronchodilator Reversibility tests (MBRT's) were performed on baseline visits 2 and 3. MBRT was determined by measuring spirometry before and after 360-720 meg of albuterol sulfate delivered by metered-dose inhaler. Patients also underwent a systemic corticosteroid response test (SCRT), which involved an intramuscular injection of triamcinolone acetonide (40 mg) on visit 2 and repeat characterization including MBRT and blood draw on visit 3 (2-4 weeks later). Induced Sputum: Sputum induction was done on visits 2 and 3. For safety, induced sputum was only collected from patients whose FEV1 was >50% predicted after albuterol pretreatment (360 μg). Total and differential cell counts were quantified in a central laboratory (Wake Forest University) using methods previously described^5,6. Gene expression for type 2 cytokines [interleukin (IL)-4, IL-5, and IL-13] and for airway gel-forming mucins (MUC5AC, MUC5B) were measured in RNA isolated from induced sputum cell pellets using real-time Taqman-based quantitative PCR (qPCR) 7 as described herein (including Table 3). RNA isolation and qPCR were done in a central laboratory (University of California at San Francisco).

[3] = Bronchodilator reversibility testing repeated after intramuscular corticosteroid (combined SCRT and MBRT); type: in vivo, human; details: patients with high mucus scores; bronchodilator reversibility testing repeated after intramuscular steroid
Method: as §1, with “Systemic Corticosteroid Responsiveness Test (SCRT): Patients were given an intramuscular injection of triamcinolone acetonide (40 mg) following complete characterization on visit 2. Repeat characterization post steroid injection (excluding MDCT), was carried out on visit 3 (2-4 weeks later) (FIG. 5). Treatment” for “Treatment”, “If the change in FEV1 after 6 puffs was greater than 5%, an additional 2 puffs of albuterol were administered with repeat spirometry after an additional 15 minutes. If the change was less than 5% after 4 or 6 puffs of albuterol, the procedure was stopped and the last maneuver was taken to be the highest achievable measure. No more than 8 puffs of albuterol were administered as part of the MBRT procedure.” left out

[4] = system: primary human airway epithelial cells; test: Apical secretion of Eotaxin-3 (CCL26) at air liquid interface; type: cell-based; details: 10 ng/ml in basolateral media for 4 days; vs untreated control (FIG. 11E)
Description: Apical secretion of Eotaxin-3 (CCL26): Human airway epithelial cells (AECs) were isolated from tracheas collected from cadaveric lung donors from the California Donor Network as a part of a separate study (Gordon et al., Proc Natl Acad Sci USA. 113, 8765-8770. doi: 8710.1073/pnas.1601914113. Epub 160191216 Jul. 1601914118. (2016)). Cells were expanded in 5% FCS in DMEM/F12 supplemented with a rho kinase inhibitor (Y-27632 SellekChem) to promote proliferation (Liu et al., Am J Pathol. 180, 599-607. doi: 510.1016/j.ajpath.2011.1010.1036. Epub 211 Dec. 1018. (2012)). Once cells reached 90% confluency flasks were washed and cells trypsinized with TrypLE (Gibco). Subconfluent cells were plated to submerged transwell inserts, using the modified Schlegel culture conditions previously described (Chu et al., Gene Ther. 22, 822-829. doi: 810.1038/gt.2015.1053. Epub 2015 July 1032. (2015)). Once cells reached confluence, the cultures were taken to air-liquid interface (ALI) in PnuemaCult Maintenance media (StemCell Technologies) and maintained for 21-days. At day 21, cells were treated with 10 ng/ml recombinant human IL-13 (R&D systems) in the basolateral media for 4 days. To measure eotaxins secreted at the apical surface of ALI cultures. 300 μL warmed PBS was added to the surface of the cells. […]

[5] = system: eosinophils; test: Cysteine cross-linking assay (BODIPY labeled cysteine exposed to eosinophils); type: cell-based, human; details: unstimulated and PMA-stimulated eosinophils; vs catalase-free control (FIG. 11H)
Method: Eosinophil Isolation and stimulation of respiratory burst: Eosinophils were purified from the peripheral blood of 4 atopic asthmatic subjects (age 48±23 years). Each subject donated 100 mL of blood on one or more occasions. All subjects signed consent forms and usage was approved by the UCSF Committee on Human Research. Eosinophils were isolated from whole blood using a three-step method in which we first pelleted the cells, followed by water lysis to remove red blood cells and finally eosinophils were purified using immunomagnetic beads (Human Eosinophil Isolation kit. Miltenyi Biotec). Briefly, whole blood was collected in EDTA (purple-top) tubs and pelleted at 1500 g for 15 minutes at 4° C. The plasma on top was removed and cell pellet retained for two cycles of water lysis. […]
Cysteine cross-linking assay: To explore cystine formation generated by eosinophil stimulation, BODIPY FL L-cysteine was generated from […] BODIPY FL L-Cystine (ThermoFisher Scientific) in Tyrode's Salts by reduction with one quarter volume packed TCEP-Gel (ThermoFisher Scientific) for 1 hour at 25° C. The reaction yields an 8 to 10-fold increase in fluorescence at 490 nm/520 nm Ex/Em. […] The decrease in fluorescence at 490 nm/520 nm Ex/Em was monitored over 2 hours at 37° C. on a Synergy H1 plate reader (BioTek Instruments) with the addition of 50,000 peripheral blood eosinophils in 100 μl Tyrode's Salts. […]

CC(C)(C)NCC(O)c1ccc(O)c(CO)c1 (stereo not shown) [albuterol]
patients with residual abnormalities in FEV1 (FEV1 <80% predicted) following maximum bronchodilator testing ([1]; asthma patients with a high mucus score): 73%
patients with residual FEV1 abnormalities after maximum bronchodilation testing ([1]; asthma patients with a zero-mucus score): 20%
mean post-bronchodilator FEV1 in the high mucus group lower than in the zero-mucus group ([1]; asthma patients, inhaled albuterol (540-720 mcg), high vs zero mucus group): 24%

CC1(C)O[C@@H]2C[C@H]3[C@@H]4CCC5=CC(=O)C=C[C@]5(C)[C@@]4(F)[C@@H](O)C[C@]3(C)[C@]2(C(=O)CO)O1 [triamcinolone acetonide]
patients with residual abnormalities in FEV1 following the SCRT ([2]; asthma patients with high mucus scores, intramuscular 40 mg): 72%
patients with residual FEV1 abnormalities following the SCRT ([2]; asthma patients with zero mucus scores, intramuscular 40 mg): 28%
mean post steroid FEV1 lower in the high-mucus group than the zero-mucus group ([2]; asthma patients, intramuscular 40 mg, high vs zero mucus group): 21%
Sputum eosinophil % following treatment with intramuscular steroid ([2]; patients with a high mucus score (FIG. 10A)): remains significantly increased
Gene expression for interleukin 13 in sputum cells following treatment with intramuscular steroid ([2]; patients with a high mucus score (FIG. 10B)): remains significantly increased
Gene expression for interleukin 5 in sputum cells following treatment with intramuscular steroid ([2]; patients with a high mucus score (FIG. 10C)): remains significantly increased
FEV1% predicted post steroid treatment ([2]; subjects with a high mucus score (FIG. 4B)): remained significantly decreased
proportion of patients whose FEV1 remained below 80% [3]: half

IL-13: recombinant human IL-13 (R&D systems) used to stimulate airway epithelial cells
concentration of eotaxin-3 in apical mucus secretions [4]: marked increases

catalase
cystine dimer formation [5]: significantly decreased
